{"source": "paper PMC6372683", "about": "“Mechanism of the natural product moracin-O derived MO-460 and its targeting protein hnRNPA2B1 on HIF-1α inhibition” (Experimental & Molecular Medicine, 2019)", "key": {"[1]": {"biological_target": "T1, full-length hnRNPA2B1 (1–353 aa) (Homo sapiens, UniProt P22626)", "T1 construct": "1–353 aa; His; made in house; host or cells: bacteria (pET28A vector)", "T1 sequence (P22626 whole entry, the tested form may be a part)": "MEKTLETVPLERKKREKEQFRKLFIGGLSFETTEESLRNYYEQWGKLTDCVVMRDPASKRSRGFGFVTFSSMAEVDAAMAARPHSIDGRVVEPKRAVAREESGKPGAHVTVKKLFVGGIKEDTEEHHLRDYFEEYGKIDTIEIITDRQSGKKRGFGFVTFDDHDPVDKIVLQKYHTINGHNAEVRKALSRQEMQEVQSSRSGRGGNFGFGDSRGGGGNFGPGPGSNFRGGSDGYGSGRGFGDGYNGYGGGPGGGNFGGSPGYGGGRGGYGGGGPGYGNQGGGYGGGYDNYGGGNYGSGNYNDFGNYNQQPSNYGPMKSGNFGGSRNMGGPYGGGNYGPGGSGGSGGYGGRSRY", "test": "BLItz association-dissociation binding assay, full-length hnRNPA2B1", "conditions": "6XHis tagged protein, Con. 5 uM, biotin-MO-460 on streptavidin tip", "description": "(§1) The binding capacity of hnRNPA2B1 to Biotin-MO-460 was also analyzed using a BLItz™ (Fortebio, Inc., CA, US) instrument with a streptavidin-coated biosensor tip (Pall, USA). The streptavidin-coated tips were pre-wetted for 10 min in an incubation buffer (10 mM HEPES pH 7.4, 1% BSA and 0.05% Tween 20). The streptavidin-coated tips were immobilized with 1 μM Biotin-MO-460 in incubation buffer (10 mM HEPES pH 7.4, 1% BSA and 0.05% Tween 20) for 5 min. […] The concentrations were then incubated with HEPES for another 3 min to desorb the protein. Analysis of the accurate and precise kinetic constants was performed by the BLItz data analysis software (BLItz Pro 1.1)."}, "[2]": {"biological_target": "T2, hnRNPA2B1 GRD (202–353 aa) (Homo sapiens, UniProt P22626)", "T2 construct": "202–353 aa; His; made in house; host or cells: bacteria (pET28A vector)", "T2 sequence (P22626 202-353)": "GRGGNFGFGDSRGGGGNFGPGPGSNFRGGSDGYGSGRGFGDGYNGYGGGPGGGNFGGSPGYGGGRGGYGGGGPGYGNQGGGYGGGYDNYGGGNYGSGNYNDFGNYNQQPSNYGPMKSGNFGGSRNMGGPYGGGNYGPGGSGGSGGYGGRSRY", "test": "BLItz association-dissociation binding assay, GRD of hnRNPA2B1", "conditions": "6XHis tagged protein, Con. 5 uM, biotin-MO-460 on streptavidin tip", "description": "as §1"}, "[3]": {"biological_target": "T3, hnRNPA2B1 GRD3 (301–353 aa) (Homo sapiens, UniProt P22626)", "T3 construct": "hnRNPA2B1(301-353aa); made in house; host or cells: bacteria (pGEX6P-1 vector)", "T3 sequence (P22626 301-353)": "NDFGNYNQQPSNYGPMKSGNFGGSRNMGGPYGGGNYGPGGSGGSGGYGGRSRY", "test": "BLItz association-dissociation binding assay, GST-fused GRD3", "conditions": "Con. 5 uM", "description": "The binding capacity of hnRNPA2B1 to Biotin-MO-460 was also analyzed using a BLItz™ (Fortebio, Inc., CA, US) instrument with a streptavidin-coated biosensor tip (Pall, USA). The streptavidin-coated tips were pre-wetted for 10 min in an incubation buffer (10 mM HEPES pH 7.4, 1% BSA and 0.05% Tween 20). The streptavidin-coated tips were immobilized with 1 μM Biotin-MO-460 in incubation buffer (10 mM HEPES pH 7.4, 1% BSA and 0.05% Tween 20) for 5 min. The biosensor was washed with HEPES (pH 7.4) and incubated with 250-, 500- and 1,000-nM concentrations of the full-length and truncated hnRNPA2B1 proteins for 3 min. The concentrations were then incubated with HEPES for another 3 min to desorb the protein. Analysis of the accurate and precise kinetic constants was performed by the BLItz data analysis software (BLItz Pro 1.1)."}, "HIF-1α": {"system": "HIF-1α", "test": "HIF-1α accumulation under real hypoxia (1% oxygen), western blotting and immunostaining", "format": "cell-based, human", "conditions": "24 h", "description": "For immunofluorescence observation, Hep3B cells were seeded on microplates at 2 or 5 × 10^4 cells/mL and cultured for 18 h. […] The medium in the microplate wells was then removed and cells were fixed with 3.7% formaldehyde in PBS for 15 min then permeabilized for 5 min with 100% cold MeOH. Cells were washed with PBS containing 1% bovine serum albumin (PBS-1% BSA), and then treated with 5% bovine serum albumin for 20 min. The cells in each well were treated with HIF-1α antibody in PBS-0.1% BSA then placed in a humidified atmosphere of 5% CO2 at 37 °C and incubated for 60 min. After being washed with PBS-0.1% BSA, treated wells of HIF-1α were incubated with Alexa Fluor 488-conjugated mouse anti-IgG antibody in PBS-0.1% BSA then incubated at room temperature for 60 min. After being washed with PBS-0.1% BSA, the dish wells were overlaid with Hoechst 33342 for 5 min at room temperature and then washed with PBS-0.1% BSA. Fluorescence was photographed with an inverted ECLIPSE Ti-U microscope (Nikon Corporation, Japan)."}, "[4]": {"system": "HIF-1α mRNA in Hep3B cells", "test": "HIF-1α mRNA level by qRT-PCR / RT-PCR", "format": "cell-based, human", "description": "Cells were lysed with TRIzol (Invitrogen) and proteins were extracted with chloroform. RNAs were precipitated with isopropanol and washed with 75% ethanol diluted with DEPC-treated water. Purity and concentration of RNA was analyzed using nano drop. The cDNA was synthesized from total RNA in a reaction mixture containing 5 × reaction buffer (250 mM Tris-HCl pH 8.3, 375 mM KCl, 15 mM MgCl2, 50 mM DTT), 50 μg/mL Oligo-dT, 10 mM dNTP, and 50,000 U M-MLV reverse transcriptase (Promega, Madison, WI). Amplified PCR products obtained with β actin-specific primers served as internal controls. The sequences of the primers used for this study are listed in Supplementary Materials and Methods 5 and 6."}, "[5]": {"system": "hnRNPA2B1 protein and HIF-1α mRNA complex", "test": "RNA-immunoprecipitation of hnRNPA2B1 with HIF-1α mRNA", "format": "cell-based, human", "conditions": "Hep3B cells, mimetic hypoxia, 50 μM, 24 h", "description": "Hep3B cells were cultured at 37 °C in a 5% atmospheric concentration of CO2 and 200 μM of CoCl2 in the presence or absence of MO-460 (50 μM) and the cells harvested after 24 h. Total lysates of Hep3B were prepared in nuclear isolation buffer [128 mM sucrose, 40 mM Tris-HCl pH 7.5, 20 mM MgCl2, 4% Triton-X100]. After clarifying by centrifugation at 2500× g for 15 min at 4 °C the nuclear pellet was resuspended in RIP buffer [150 mM KCl, 25 mM Tris-HCl pH 7.5, 5 mM EDTA, 0.5 mM DTT, 0.5% Triton-X100, and protease inhibitor cocktail], and then incubated with 4 μg of either control IgG or the anti-hnRNPA2B1 antibody. After 1.5 h of incubation, protein-G agarose beads (Santa Cruz Biotechnologies, Santa Cruz, CA) were added and then precipitated. RNAs were purified from 90% of the samples. Eluted RNAs were complemented by reverse transcriptase with random primers. cDNAs were used in the subsequent PCR reactions with the indicated primer sets. The resulting PCR products were separated on a 1.5% agarose gel. The other 10% of the samples from which RNA was not collected were separated by SDS-PAGE and then immunoblotted with anti-hnRNPA2B1 antibody."}, "[6]": {"system": "HIF-1α translation in presence of hnRNPA2B1", "test": "In vitro transcription/translation assay of HIF-1α", "format": "biochemical, human", "conditions": "purified hnRNPA2B1 protein added", "description": "HIF-1α proteins were synthesized using in vitro transcription/translation systems (Promega, Madison, WI), the protocol was followed the manufacturer’s instructions. In brief, mixtures containing reaction components were incubated at 30 °C for 60 min, and then analyzed by Western blotting using HIF-1α. The template was used HIF-1α plasmid DNA containing untranslated region (Korea human gene bank, Daejeon, Rep. of Korea), and full-length recombinant hnRNPA2B1 and MO-460 were added to the mixture."}, "Hep3B cells": {"system": "Hep3B cells", "test": "Stress granule formation (immunostaining of hnRNPA2B1 and TIA-1)", "format": "cell-based, human", "conditions": "mimetic hypoxia"}}, "note": "Values joined by “and” are separate entries in the source; they are usually repeats but may differ in a detail not shown here. Equal entries are not always repeated. “Also recorded” adds a separate entry of the source.", "data": [{"smiles": "CC(C)(O)[C@H]1Cc2cc3cc(-c4ccc(O)cc4)oc3cc2O1", "note": "[MO-460, (R)-4-[6-(1-Hydroxy-1-methylethyl)-5,6-dihydro-benzo[1,2-b;5,4-b’]difuran-2-yl]-phenol]", "values": [{"measurement": "Kd", "setting": "[1]", "result": 11.4, "unit": "µM"}, {"measurement": "Kd", "setting": "[2]", "result": 6.6, "unit": "µM"}, {"measurement": "Kd", "setting": "[3]", "result": 0.299, "unit": "µM"}, {"measurement": "HIF-1α accumulation", "setting": "HIF-1α", "result": "reduction in HIF-1α accumulation"}, {"measurement": "reduction in HIF-1α mRNA level", "setting": "[4]; 50 µM, mimetic hypoxia, qRT-PCR", "result": "~ 10% and < 10%"}, {"measurement": "effect on HIF-1α transcript level", "setting": "[4]; normoxic condition", "result": "no observed effect; also recorded: did not affect HIF-1α transcript levels"}, {"measurement": "interaction between hnRNPA2B1 and HIF-1α mRNA", "setting": "[5]", "result": "abolished"}, {"measurement": "effect on hnRNPA2B1-enhanced HIF-1α translation", "setting": "[6]", "result": "attenuated this effect"}, {"measurement": "stress granule formation, co-localization with TIA-1", "setting": "Hep3B cells", "result": "causes formation of cytoplasmic dots in hnRNPA2B1"}]}]}
